{"source": "patent US20050143450A1", "about": "“Alkyl PCDF as a treatment for prostate cancer” (priority 2002, published 2005)", "key": {"[1]": {"test_system": "LNCaP prostate cancer cells", "format": "cell-based, human", "description": "Cells were analyzed on a FACS Calibur (Becton Dickinson, San Jose, Calif.) flow cytometer, equipped with a 15 mW air-cooled argon laser, using CellQuest (Becton Dickinson) acquisition software. Propidium iodide (PI) fluorescence was collected through a 585/42-nm bandpass filter, and list mode data were acquired on a minimum of 12,000 single cells defined by a dot plot of PI-width versus PI-area. Data analysis was performed in ModFit LT (Verity Software House, Topsham, Me.) using PI-width versus PI-area to exclude cell aggregates.\nThe effects of TCDD on cell cycle progression was also determined in LNCaP cells treated with 1.0, 10 and 100 nM TCDD for 48 h followed by FACS analysis (Table 1)."}, "AhR": {"target": "T1, AhR (Homo sapiens, UniProt P35869)", "T1 construct": "LNCaP cells were transfected with pDRE3, treated with various compounds and luciferase activity was determined; endogenous in cells; host or cells: LNCaP", "T1 sequence (P35869 11-848)": "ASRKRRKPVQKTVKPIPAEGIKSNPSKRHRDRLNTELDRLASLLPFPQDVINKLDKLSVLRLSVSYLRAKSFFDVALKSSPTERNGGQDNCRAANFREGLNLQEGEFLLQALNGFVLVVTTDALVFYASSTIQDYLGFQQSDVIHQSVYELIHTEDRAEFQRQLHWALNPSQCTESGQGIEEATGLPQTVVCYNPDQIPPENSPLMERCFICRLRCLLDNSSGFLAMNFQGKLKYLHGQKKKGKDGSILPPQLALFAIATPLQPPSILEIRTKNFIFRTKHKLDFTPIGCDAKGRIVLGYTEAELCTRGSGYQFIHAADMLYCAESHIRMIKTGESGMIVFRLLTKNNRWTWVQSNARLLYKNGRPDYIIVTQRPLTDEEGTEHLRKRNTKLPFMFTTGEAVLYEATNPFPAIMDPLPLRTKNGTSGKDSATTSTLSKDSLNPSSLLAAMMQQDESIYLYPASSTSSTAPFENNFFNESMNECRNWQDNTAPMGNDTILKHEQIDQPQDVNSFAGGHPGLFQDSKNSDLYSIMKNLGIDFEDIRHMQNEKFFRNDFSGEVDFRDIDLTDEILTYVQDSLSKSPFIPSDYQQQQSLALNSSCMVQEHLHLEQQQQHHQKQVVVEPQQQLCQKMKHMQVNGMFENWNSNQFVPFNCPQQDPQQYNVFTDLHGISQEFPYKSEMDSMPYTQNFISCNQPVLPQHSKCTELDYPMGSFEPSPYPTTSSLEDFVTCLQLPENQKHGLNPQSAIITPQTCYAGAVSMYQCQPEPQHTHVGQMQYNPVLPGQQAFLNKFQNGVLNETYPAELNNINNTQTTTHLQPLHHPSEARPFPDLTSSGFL", "test": "AhR activation, pDRE3 luciferase transient transfection in LNCaP cells", "format": "cell-based", "description": "(§1) After 24 h, cells were transfected using Lipofectamine and Plus reagents (Invitrogen) according to manufacturer's instructions. LNCaP and ZR-75 cells were transfected with 500 ng/well of either reporter plasmid, and 250 ng/well of pcDNA3.1-β-gal (Invitrogen) as the internal control. In addition, ZR-75 cells were transfected with 500 ng hAR. Twenty-four hours after treatment, cells were harvested by scraping with 200 μL/well of reporter lysis buffer. Lysates were centrifuged at 40,000 g and luciferase and β-galactosidase activity was assayed with 30 μL of the supernatant extract per sample using a Lumicount luminometer (PerkinElmer, Boston, Mass.). Luciferase activity was normalized to β-galactosidase activity for each transfection well.\nLNCaP cells were transfected with pDRE3, treated with various compounds and luciferase activity was determined as described in the above Examples."}, "[2]": {"test_system": "androgen-responsive probasin gene promoter (pPB)", "format": "cell-based, human", "description": "as §1, with “ZR-75 human breast cancer and LNCaP human prostate cancer cells were obtained from American Type Culture Collection (Manassas, Va.) and were maintained in RPMI 1640 medium supplemented with 10% FBS, 1% antibiotic/antimycotic solution, 1.5 g/L sodium bicarbonate, and 10 mM HEPES, final pH of 7.4. Cells were seeded at 2.75×10^5 per 22-mm well in DME-F12 without phenol red, supplemented with 2.5% charcoal-stripped fetal bovine serum (FBS). After” for “After”"}, "LNCaP cells": {"test_system": "LNCaP cells", "format": "cell-based, human", "description": "After trypsinization and low-speed centrifugation, LNCaP cells were resuspended and counted using a Coulter cell counter (Beckman Coulter, Fullerton, Calif.). Cells were seeded at a density of 5×10^4/35-mm well using DME-F12 without phenol red, supplemented with 2.5% charcoal-stripped fetal bovine serum (FBS). Twenty-four hours after seeding, initial treatment was applied and then subsequently reapplied with fresh medium every two days until harvesting by trypsinization. Cells were counted after harvesting using a Coulter counter."}, "AR [3]": {"target": "T2, AR (Homo sapiens, UniProt P10275, T878A)", "T2 construct": "AR protein levels in whole cell lysates were determined by Western blot analysis; endogenous in cells; host or cells: LNCaP", "T2 sequence (P10275 1-920 T878A)": "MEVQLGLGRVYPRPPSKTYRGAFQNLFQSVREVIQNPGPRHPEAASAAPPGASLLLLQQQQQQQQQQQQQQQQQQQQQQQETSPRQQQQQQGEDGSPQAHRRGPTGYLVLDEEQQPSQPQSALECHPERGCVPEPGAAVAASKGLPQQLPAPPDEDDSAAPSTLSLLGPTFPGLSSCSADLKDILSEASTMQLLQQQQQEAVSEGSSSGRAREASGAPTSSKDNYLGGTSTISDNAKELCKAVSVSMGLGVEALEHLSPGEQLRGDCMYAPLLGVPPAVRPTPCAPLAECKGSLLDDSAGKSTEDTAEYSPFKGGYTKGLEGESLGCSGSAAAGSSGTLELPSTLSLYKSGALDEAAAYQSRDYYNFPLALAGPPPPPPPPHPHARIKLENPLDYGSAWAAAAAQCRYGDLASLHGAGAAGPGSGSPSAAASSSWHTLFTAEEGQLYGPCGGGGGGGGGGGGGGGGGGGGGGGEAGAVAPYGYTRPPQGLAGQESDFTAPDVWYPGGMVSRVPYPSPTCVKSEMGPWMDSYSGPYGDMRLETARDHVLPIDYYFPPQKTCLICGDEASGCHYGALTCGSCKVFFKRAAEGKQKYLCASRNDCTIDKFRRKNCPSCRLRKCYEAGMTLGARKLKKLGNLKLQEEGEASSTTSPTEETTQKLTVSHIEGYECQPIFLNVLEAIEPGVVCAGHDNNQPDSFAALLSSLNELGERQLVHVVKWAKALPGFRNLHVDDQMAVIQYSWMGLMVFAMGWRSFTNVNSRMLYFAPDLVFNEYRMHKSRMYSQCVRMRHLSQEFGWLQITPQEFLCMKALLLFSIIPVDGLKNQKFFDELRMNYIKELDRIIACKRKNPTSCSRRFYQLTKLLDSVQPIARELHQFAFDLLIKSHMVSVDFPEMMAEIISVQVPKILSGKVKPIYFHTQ", "format": "cell-based", "settings": "LNCaP", "description": "as §1\nNext, LNCaP cells were transfected with pARR3 construct that contained three tandem (3) copies of the probasin androgen response element. The transfected cells were treated with hormone or AhR agonist alone or in combination and luciferase activity was determined as described in the above examples."}, "AR [4]": {"target": "T2, AR", "format": "cell-based", "settings": "LNCaP, pPB, HPTE 10 μM", "description": "as §1\nThe transfected cells were then treated with hormone or AhR agonist alone or in combination and luciferase activity was determined as described in the above examples."}, "AR [5]": {"test_system": "AR", "test": "AR protein levels in LNCaP cells by Western blot", "format": "cell-based, human", "settings": "6 h", "description": "Cells were harvested 6 h after treatment using 200 μL/22-mm well of ice cold lysis buffer (50 mM HEPES, pH 7.5, 500 mM NaCl, 10% (v/v) glycerol, 1% (v/v) Triton-X 100, 1.5 mM MgCl2, 1 mM EGTA) (McDougal et al., 2001). Lysates were centrifuged at 40,000 g, and supernatant was collected as extract. Whole cell extracts (50 μg/sample) were separated by electrophoresis on a tiered 7.5% (top)/12.5% (bottom) SDS-polyacrylamide gel and transferred to PVDF membrane (Bio-Rad, Richmond, Calif.). The membrane was blocked with 5% milk (m/v) in tris-buffered saline 0.05% Tween (TBST). Membranes were incubated with primary antibodies for AR (sc-7305), cyclin D1 (sc-718), or p27 (sc-528) (each from Santa Cruz Biotechnology, Santa Cruz, Calif.) at 1:1000 in 5% milk/TBST for 3 h. Membranes were washed twice in TBST. Horseradish peroxidase (HRP)-conjugated secondary antibodies were applied at 1:5000 in 5% milk/TBST for 1 h. After two TBST washes, PVDF-bounded antibodies were detected using a chemiluminescence kit (Western Lightning, PerkinElmer), ImageTek-H film (American X-Ray and Medical Supply, Rancho Cordova, Calif.) and an autoprocessor (Hope Macro-Med, Warminster, Pa.). Quantitation of the Western blot was performed using a Sharp JX-330 scanner (Sharp, Mahwah, N.J.) and Zero-D software (Scanalytics, Billerica, Mass.)."}}, "note": "Like-named read-outs stand apart in the source and are kept apart here."}
{"smiles": "C[C@]12CCC(=O)C[C@@H]1CC[C@@H]1[C@@H]2CC[C@]2(C)[C@@H](O)CC[C@@H]12", "note": "[DHT, dihydrotestosterone]", "values": [{"measurement": "Percent Distribution G0/G1", "setting": "[1]", "result": "73.400 ± 1.179", "unit": "%"}, {"measurement": "Percent Distribution G2/M", "setting": "[1]", "result": "9.433 ± 1.011", "unit": "%"}, {"measurement": "Percent Distribution S", "setting": "[1]", "result": "17.167 ± 0.296", "unit": "%"}, {"measurement": "cell cycle distribution, difference between solvent (DMSO) and DHT", "setting": "[1]", "result": "minimal differences"}, {"measurement": "luciferase activity induction compared to solvent control (DMSO)", "setting": "AhR; pDRE3, 10 nM", "result": "did not significantly induce activity"}, {"measurement": "effect on 6-MCDF-induced luciferase activity", "setting": "AhR; pDRE3, hormone in combination with 6-MCDF", "result": "significantly inhibited"}, {"measurement": "reporter gene activity", "setting": "[2]", "result": "did not activate"}, {"measurement": "hormone-induced cell growth", "setting": "LNCaP cells", "result": "not observed"}]}
{"smiles": "C[C@]12CC[C@@H]3c4ccc(O)cc4CC[C@H]3[C@@H]1CC[C@@H]2O", "note": "[E2, 17β-estradiol]", "values": [{"measurement": "reporter gene activity", "setting": "[2]; ZR-75 cells, pPB alone", "result": "did not activate"}]}
{"smiles": "C[C@]12CC[C@@H]3c4ccc(O)cc4C[C@@H](CCCCCCCCC[S+]([O-])CCCC(F)(F)C(F)(F)F)[C@H]3[C@@H]1CC[C@@H]2O", "note": "(stereo partly shown) [ICI 182780]", "values": [{"measurement": "effect on DHT-induced luciferase activity", "setting": "AR [3]; pARR3, cotreatment with DHT", "result": "inhibited"}, {"measurement": "effect on E2-induced luciferase activity", "setting": "AR [3]; pARR3, cotreatment with E2", "result": "inhibited"}, {"measurement": "effect on DHT-induced luciferase activity", "setting": "AR [4]; cotreatment with 10 nM DHT, MCDF 2 μM", "result": "only minimal inhibition"}, {"measurement": "effect on E2-induced luciferase activity", "setting": "AR [4]; cotreatment with 10 nM E2", "result": "significantly inhibited"}, {"measurement": "AR levels in combination with DHT compared to DHT alone", "setting": "AR [5]", "result": "not decreased"}, {"measurement": "AR levels in combination with E2 compared to E2 alone", "setting": "AR [5]", "result": "not decreased"}, {"measurement": "AR protein levels, compound alone", "setting": "AR [5]; DHT 10 nM, E2 10 nM, TCDD 10 nM, 6-MCDF 2 μM, HPTE 10 μM", "result": "increased"}]}
